Results: article PMC11768584 (Viruses, 2025)
pEC50: −log10 of the molar value. Like-named read-outs stand apart in the source and are kept apart here.

Experiments:
LCMV vRNP = target: T1, LCMV vRNP (Lymphocytic choriomeningitis virus, UniProt P09992+P14240); assay type: cell-based
T1 construct: expressed in transfected cells; host or cells: HEK293T

LASV vRNP = LASV vRNP (UniProt P13699+Q6GWS6); assay type: cell-based
in vitro [1] = details: African green monkey, CC50 (CellTiter 96 Aqueous One)
rLCMV/GFP-P2A-NP [2] = assay: organism not typed; assay type: cell-based, LCMV; details: for pEC50: Hec50, read-out: EC50, LCMV multiplication (GFP expression)
[3] = system: r3JUNVCandid GFP/GFP (r3Can-GFP); assay type: cell-based, JUNV
[4] = cited from earlier work
[5] = target: T2, LCMV GPC (GP2-mediated fusion) (Lymphocytic choriomeningitis virus, UniProt P09991); assay type: cell-based
T2 construct: expressed in transfected cells; host or cells: HEK293T
T2 sequence (P09991 266-498 limits assumed): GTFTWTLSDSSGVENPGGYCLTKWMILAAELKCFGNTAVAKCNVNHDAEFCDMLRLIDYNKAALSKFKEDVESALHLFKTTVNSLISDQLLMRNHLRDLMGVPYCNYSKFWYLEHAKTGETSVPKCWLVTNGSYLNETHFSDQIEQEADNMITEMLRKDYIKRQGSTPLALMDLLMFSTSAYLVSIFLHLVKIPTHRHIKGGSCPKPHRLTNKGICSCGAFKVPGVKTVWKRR
T2 sequence (P09991 59-265 limits assumed): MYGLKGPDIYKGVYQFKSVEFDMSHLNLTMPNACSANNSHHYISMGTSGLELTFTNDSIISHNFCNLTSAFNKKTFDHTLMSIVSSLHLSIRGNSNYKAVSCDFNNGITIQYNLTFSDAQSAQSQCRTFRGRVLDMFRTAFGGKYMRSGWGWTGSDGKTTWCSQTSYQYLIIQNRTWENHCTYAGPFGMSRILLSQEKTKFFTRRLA
T2 sequence (P09991 2-58 limits assumed): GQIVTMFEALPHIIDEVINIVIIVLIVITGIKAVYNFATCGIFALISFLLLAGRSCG

rLCMV/GFP-P2A-NP [6] = assay type: cell-based, LCMV
rLCMV/GFP-P2A-NP [7] = system: rLCMV/GFP-P2A-NP; set-up: species or system LCMV
in vitro [8] = details: human
rLCMV/GFP-P2A-NP [9] = assay: organism not typed; assay type: cell-based, LCMV; details: for pEC50: A549, read-out: EC50, LCMV multiplication (GFP expression)
mammarenavirus = details: cited from earlier work

T1 sequence (P09992 whole entry): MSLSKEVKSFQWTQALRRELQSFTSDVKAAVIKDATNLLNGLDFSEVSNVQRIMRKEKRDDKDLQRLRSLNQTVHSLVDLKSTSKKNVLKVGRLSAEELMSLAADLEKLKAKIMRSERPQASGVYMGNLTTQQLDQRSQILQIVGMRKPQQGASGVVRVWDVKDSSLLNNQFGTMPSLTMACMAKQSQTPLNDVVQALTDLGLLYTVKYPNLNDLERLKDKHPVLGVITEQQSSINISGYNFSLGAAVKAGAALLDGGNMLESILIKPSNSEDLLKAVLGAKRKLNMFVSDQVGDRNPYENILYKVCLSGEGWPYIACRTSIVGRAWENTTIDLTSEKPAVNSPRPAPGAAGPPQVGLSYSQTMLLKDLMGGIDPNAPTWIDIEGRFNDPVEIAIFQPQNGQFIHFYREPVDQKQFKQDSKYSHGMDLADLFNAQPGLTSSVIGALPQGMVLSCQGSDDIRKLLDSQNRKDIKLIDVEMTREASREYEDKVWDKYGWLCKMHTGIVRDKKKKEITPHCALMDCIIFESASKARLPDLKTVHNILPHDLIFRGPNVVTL
T1 sequence (P14240 whole entry): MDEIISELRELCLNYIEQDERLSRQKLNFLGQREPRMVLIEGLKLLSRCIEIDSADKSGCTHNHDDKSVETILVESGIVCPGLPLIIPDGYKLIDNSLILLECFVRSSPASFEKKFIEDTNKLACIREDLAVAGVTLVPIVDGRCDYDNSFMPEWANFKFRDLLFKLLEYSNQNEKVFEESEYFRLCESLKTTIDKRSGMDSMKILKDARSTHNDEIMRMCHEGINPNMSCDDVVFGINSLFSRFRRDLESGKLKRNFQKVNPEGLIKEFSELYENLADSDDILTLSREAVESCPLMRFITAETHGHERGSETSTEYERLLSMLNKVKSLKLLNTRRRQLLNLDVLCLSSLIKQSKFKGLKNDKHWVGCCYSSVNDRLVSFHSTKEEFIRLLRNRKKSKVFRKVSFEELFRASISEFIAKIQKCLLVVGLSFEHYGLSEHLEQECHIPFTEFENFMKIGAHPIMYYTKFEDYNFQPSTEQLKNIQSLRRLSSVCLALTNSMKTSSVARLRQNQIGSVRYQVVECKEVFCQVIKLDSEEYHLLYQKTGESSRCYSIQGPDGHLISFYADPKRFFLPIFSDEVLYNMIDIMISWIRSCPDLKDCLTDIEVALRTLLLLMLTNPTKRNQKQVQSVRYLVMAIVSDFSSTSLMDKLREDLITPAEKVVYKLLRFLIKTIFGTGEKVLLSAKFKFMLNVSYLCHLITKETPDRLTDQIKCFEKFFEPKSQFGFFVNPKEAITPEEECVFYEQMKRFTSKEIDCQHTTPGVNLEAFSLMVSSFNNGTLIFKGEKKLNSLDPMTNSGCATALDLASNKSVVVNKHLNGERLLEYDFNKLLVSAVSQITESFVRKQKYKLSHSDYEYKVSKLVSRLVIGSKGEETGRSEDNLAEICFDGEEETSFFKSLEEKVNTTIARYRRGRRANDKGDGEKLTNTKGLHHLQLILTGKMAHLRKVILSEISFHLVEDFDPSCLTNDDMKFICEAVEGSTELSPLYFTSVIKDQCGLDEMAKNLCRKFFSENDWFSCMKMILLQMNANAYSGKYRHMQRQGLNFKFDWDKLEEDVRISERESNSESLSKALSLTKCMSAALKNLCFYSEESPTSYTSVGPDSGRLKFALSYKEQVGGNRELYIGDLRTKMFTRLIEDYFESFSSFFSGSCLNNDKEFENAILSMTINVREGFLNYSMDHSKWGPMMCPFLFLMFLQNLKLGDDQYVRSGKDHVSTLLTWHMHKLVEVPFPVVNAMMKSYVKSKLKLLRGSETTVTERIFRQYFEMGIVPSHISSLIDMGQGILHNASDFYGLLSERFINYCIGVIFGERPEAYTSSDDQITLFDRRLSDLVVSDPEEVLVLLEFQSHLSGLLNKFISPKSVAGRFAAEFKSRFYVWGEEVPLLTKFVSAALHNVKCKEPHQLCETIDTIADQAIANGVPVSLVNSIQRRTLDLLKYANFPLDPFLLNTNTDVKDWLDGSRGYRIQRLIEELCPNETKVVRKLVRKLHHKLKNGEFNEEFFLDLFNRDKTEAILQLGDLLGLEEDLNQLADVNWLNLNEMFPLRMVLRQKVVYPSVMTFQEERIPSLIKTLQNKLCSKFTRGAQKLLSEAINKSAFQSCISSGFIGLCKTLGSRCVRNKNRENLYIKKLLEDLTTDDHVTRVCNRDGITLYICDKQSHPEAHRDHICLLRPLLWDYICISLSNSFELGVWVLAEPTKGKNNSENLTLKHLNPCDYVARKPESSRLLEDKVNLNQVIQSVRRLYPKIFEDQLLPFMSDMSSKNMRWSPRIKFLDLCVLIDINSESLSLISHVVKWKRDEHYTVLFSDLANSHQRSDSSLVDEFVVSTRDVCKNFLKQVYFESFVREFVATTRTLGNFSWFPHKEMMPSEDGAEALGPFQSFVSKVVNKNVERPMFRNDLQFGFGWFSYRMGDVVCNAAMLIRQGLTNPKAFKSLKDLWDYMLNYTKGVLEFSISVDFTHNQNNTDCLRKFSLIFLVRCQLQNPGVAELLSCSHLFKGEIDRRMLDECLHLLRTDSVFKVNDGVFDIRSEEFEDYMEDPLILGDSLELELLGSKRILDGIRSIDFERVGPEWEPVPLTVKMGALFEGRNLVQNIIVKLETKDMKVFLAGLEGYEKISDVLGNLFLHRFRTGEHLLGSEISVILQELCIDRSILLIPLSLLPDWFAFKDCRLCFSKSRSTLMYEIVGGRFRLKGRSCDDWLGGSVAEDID

For C[C@@H]1C[C@H]2[C@@H]3CCC4=CC(=O)C=C[C@]4(C)[C@@]3(F)[C@@H](O)C[C@]2(C)[C@@]1(O)C(=O)CO [DEX, dexamethasone], the “Inhibition of LCMV MG activity (in words)” value (“Inhibition … (in words)” for short) (LCMV vRNP) was “minimal inhibitory activities”, the “Reduction in LASV MG-directed ZsGreen expression levels vs vehicle control” value (from here on “Reduction … vs vehicle control”) (LASV vRNP) was ~ 28% and the CC50 (in vitro [1]) was 55.7 µM. The “Toxicity on Vero cells (in words)” value (Vero cells) was “minimal toxicity” and the “Inhibitory activity on LCMV multiplication (in words)” value (“Inhibitory activity” for short) (rLCMV/GFP-P2A-NP [2]) was “very poor inhibitory activity”.
For Fc1ccc(C(c2ccc(F)cc2)N2CCN(C/C=C/c3ccccc3)CC2)cc1 [FLN, Flunarizine], the “Inhibition … (in words)” value (LCMV vRNP) was “strongest inhibitory effect”, the “Inhibition of LCMV MG vRNP-directed reporter gene (GFP) expression” value (LCMV vRNP) was ~ 75% and the “Reduction in r3Can-GFP (JUNV) virus peak titers vs VC” value [3] was > 1 log. For the same molecule, the “Reduction … vs vehicle control” value (LASV vRNP) was ~ 50%, the CC50 (in vitro [1]) was > 100 µM and the “Bound to plasma proteins” value [4] was “More than 99%”. For the same molecule, the “GP2-mediated pH-dependent fusion (syncytium formation)” value [5] was “inhibition of GP2-mediated fusion”, the “Levels of viral (LCMV NP) RNA determined by RT-qPCR” value (rLCMV/GFP-P2A-NP [6]) was “reduced” and the “Virus cell propagation (GFP imaging)” value (rLCMV/GFP-P2A-NP [6]) was “reduced virus cell propagation”. The “Virucidal activity: effect on virion infectivity” value (rLCMV/GFP-P2A-NP [7]) was “did not significantly affect virion infectivity” and the CC50 (in vitro [8]) was 74.3 µM.
For NCC1(CC(=O)O)CCCCC1 [Gabapentin, gabapentin], the “Anti-LCMV activity of calcium channel blockers (in words)” value (rLCMV/GFP-P2A-NP [9]) was “did not exhibit significant anti-LCMV activity”, the “EC50, LCMV multiplication (GFP expression)” value (rLCMV/GFP-P2A-NP [9]) was “>Flat” and the CC50 (in vitro [8]) was > 100 µM.
In the case of OC(c1cc(C(F)(F)F)nc2c(C(F)(F)F)cccc12)C1CCCCN1 (stereo not drawn) [MEF, mefloquine], the “Inhibition … (in words)” value (LCMV vRNP) was “minimal inhibitory activities”, the “Reduction … vs vehicle control” value (LASV vRNP) was 5% and the CC50 (in vitro [1]) was 29.1 µM. The CC50 (Vero cells; African green monkey) was 27.3 µM, the “selective index (SI)” value (rLCMV/GFP-P2A-NP [2]) was 1.87 and the pEC50 (rLCMV/GFP-P2A-NP [2]) was 4.81.
In the case of [Cl][Ni][Cl] [Nickel Chloride, nickel chloride], the CC50 (A549 cells) was > 100 µM and the “Anti-LCMV activity of calcium channel blockers (in words)” value (rLCMV/GFP-P2A-NP [9]) was “did not exhibit significant anti-LCMV activity”.
For COC(=O)C1=C(C)NC(C)=C(C(=O)OC)C1c1ccccc1[N+](=O)[O-] [Nifidipine, nifedipine], the “Anti-LCMV activity of calcium channel blockers (in words)” value (rLCMV/GFP-P2A-NP [9]) was “did not exhibit significant anti-LCMV activity” and the pEC50 (rLCMV/GFP-P2A-NP [9]) was < 4.00.
With CN1CC(=O)N2[C@H](c3ccc4c(c3)OCO4)c3[nH]c4ccccc4c3C[C@@H]2C1=O [TAD, tadalafil] the “Inhibition … (in words)” value (LCMV vRNP) was “minimal inhibitory activities”, the “Reduction … vs vehicle control” value (LASV vRNP) was ~ 12% and the CC50 (in vitro [1]) was > 100 µM. The “Toxicity on Vero cells (in words)” value (Vero cells) was “minimal toxicity”, the “Inhibitory activity” value (rLCMV/GFP-P2A-NP [2]) was “very poor inhibitory activity” and the pEC50 (rLCMV/GFP-P2A-NP [2]) was < 4.00.
In the case of COc1ccc(CCN(C)CCCC(C#N)(c2ccc(OC)c(OC)c2)C(C)C)cc1OC (stereo not drawn) [Verapamil, verapamil], the “Anti-LCMV activity of calcium channel blockers (in words)” value (rLCMV/GFP-P2A-NP [9]) was “did not exhibit significant anti-LCMV activity”, the pEC50 (rLCMV/GFP-P2A-NP [9]) was < 4.00 and the CC50 (in vitro [8]) was > 100 µM.
In the case of C=C1CC[C@H](O)C/C1=C/C=C1\CCC[C@]2(C)[C@@H]([C@H](C)/C=C/[C@H](C)C(C)C)CC[C@@H]12 [Vit D, ergocalciferol], the “Inhibition … (in words)” value (LCMV vRNP) was “minimal inhibitory activities”, the “Reduction … vs vehicle control” value (LASV vRNP) was ~ 18% and the CC50 (in vitro [1]) was > 100 µM. The “Toxicity on Vero cells (in words)” value (Vero cells) was “minimal toxicity”, the “Inhibitory activity” value (rLCMV/GFP-P2A-NP [2]) was “very poor inhibitory activity” and the pEC50 (rLCMV/GFP-P2A-NP [2]) was < 4.00.
In the case of Clc1ccc(Cn2c(CN3CCCC3)nc3ccccc32)cc1 [clemizole], the “Anti-mammarenavirus activity (in words)” value (mammarenavirus) is listed as “does not exhibit anti-mammarenavirus activity”.
